Converted amounts (≈) assume the structure as drawn. The source made the active and inactive calls. No cut-off for these calls is given here.
System: not listed separately
Test: Metabolic stability in human liver microsomes after 0.5 hrs
Assay type: ADME, microsome
Conditions: read-out: Stability

Row | SMILES | remaining at 0.5 h
1 | Cc1ccc(Oc2ccc3nc(COc4cccc(C(=O)O)c4)n(C)c3c2)cc1 | 91%

System: not listed separately
Test: 1-octanol/PBS distribution co-efficient, log D of the compound at […] at pH 7.4 after 30 mins by HPLC-MS/MS analysis
Assay type: physicochemical
Conditions: not given

Row | SMILES | logD at 0.5 h
2 | Cc1ccc(Oc2ccc3nc(COc4cccc(C(=O)O)c4)n(C)c3c2)cc1 | 2.4

System: not listed separately
Test: Clearance in cynomolgus monkey at 1 mg/kg, iv by LC-MS/MS analysis
Assay type: ADME, organism-based, Macaca fascicularis
Conditions: in vivo

Row | SMILES | clearance
3 | Cc1ccc(Oc2ccc3nc(COc4cccc(C(=O)O)c4)n(C)c3c2)cc1 | 3.58 mL/min/kg

Target: T1, Peroxisome proliferator-activated receptor gamma (Homo sapiens, UniProt P37231)
T1 sequence (P37231 whole entry): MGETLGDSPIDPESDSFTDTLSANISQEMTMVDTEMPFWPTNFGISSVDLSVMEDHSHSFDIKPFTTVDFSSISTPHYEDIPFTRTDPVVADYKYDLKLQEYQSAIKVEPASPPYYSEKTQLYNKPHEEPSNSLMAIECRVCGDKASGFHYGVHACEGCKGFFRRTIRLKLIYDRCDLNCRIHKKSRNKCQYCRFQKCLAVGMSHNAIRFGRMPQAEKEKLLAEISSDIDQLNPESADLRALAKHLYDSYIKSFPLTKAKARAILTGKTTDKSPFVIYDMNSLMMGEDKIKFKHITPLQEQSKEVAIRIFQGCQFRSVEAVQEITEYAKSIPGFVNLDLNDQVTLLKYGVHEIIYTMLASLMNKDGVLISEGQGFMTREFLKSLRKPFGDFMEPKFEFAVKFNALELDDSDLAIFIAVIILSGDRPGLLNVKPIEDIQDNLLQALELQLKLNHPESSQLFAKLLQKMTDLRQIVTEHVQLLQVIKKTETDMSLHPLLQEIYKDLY
Test: Agonist activity at recombinant human GAL4-DBD fused PPARgamma LBD expressed in COS7 cells after 24 hrs by luciferase reporter gene assay
Assay type: cell-based
Conditions: not given

Row | SMILES | EC50
4 | Cc1ccc(Oc2ccc3nc(COc4cccc(C(=O)O)c4)n(C)c3c2)cc1 | 40 nM

System: not listed separately
Test: Plasma concentration in hyperglycemic KK/Ta mouse at 30 mg/kg/day, po administered through diet for 3 days measured on day 3 post last dose
Assay type: ADME, organism-based
Conditions: not given

Row | SMILES | concentration at 72 h
5 | Cc1ccc(Oc2ccc3nc(COc4cccc(C(=O)O)c4)n(C)c3c2)cc1 | 510 ng/mL

System: not listed separately
Test: Half life in cynomolgus monkey at 3 mg/kg, po by LC-MS/MS analysis
Assay type: ADME, organism-based, Macaca fascicularis
Conditions: in vivo

Row | SMILES | half-life
6 | Cc1ccc(Oc2ccc3nc(COc4cccc(C(=O)O)c4)n(C)c3c2)cc1 | 10.4 h

System: Mus musculus
Test: Glucose-lowering effect in hyperglycemic KK/Ta mouse assessed as reduction in plasma glucose level at 30 mg/kg/day, po administered through diet for 3 days relative to control
Assay type: functional
Set-up: scale not given: the % may be the effect or the level left
Conditions: not given

Row | SMILES | Activity
7 | Cc1ccc(Oc2ccc3nc(COc4cccc(C(=O)O)c4)n(C)c3c2)cc1 | 48.4%

System: Rattus norvegicus
Test: Toxicity in Zucker diabetic fatty rat assessed as body weight gain at 3 mg/kg, po administered once daily for 14 days relative to control
Assay type: organism-based
Conditions: in vivo, 336 h

Row | SMILES | Activity
8 | Cc1ccc(Oc2ccc3nc(COc4cccc(C(=O)O)c4)n(C)c3c2)cc1 | 13%

System: not listed separately
Test: Metabolic stability in cynomolgus monkey liver microsomes after 0.5 hrs
Assay type: ADME, Macaca fascicularis, microsome
Conditions: read-out: Stability

Row | SMILES | remaining at 0.5 h
9 | Cc1ccc(Oc2ccc3nc(COc4cccc(C(=O)O)c4)n(C)c3c2)cc1 | 100%

System: not listed separately
Test: Cmax in cynomolgus monkey at 3 mg/kg, po by LC-MS/MS analysis
Assay type: ADME, organism-based, Macaca fascicularis
Set-up: dose 3 mg/kg, route oral
Conditions: in vivo

Row | SMILES | Cmax
10 | Cc1ccc(Oc2ccc3nc(COc4cccc(C(=O)O)c4)n(C)c3c2)cc1 | 1020 ng/mL

System: not listed separately
Test: Oral bioavailability in cynomolgus monkey at 3 mg/kg by LC-MS/MS analysis
Assay type: ADME, organism-based, Macaca fascicularis
Conditions: in vivo

Row | SMILES | bioavailability
11 | Cc1ccc(Oc2ccc3nc(COc4cccc(C(=O)O)c4)n(C)c3c2)cc1 | 34%

System: not listed separately
Test: AUC (0 to 24 hrs) in Zucker diabetic fatty rat at 3 mg/kg, po dosed once daily for 14 days and followed by additional administeration on day 15
Assay type: ADME, organism-based
Set-up: dose 3 mg/kg, time < 24 hr, route oral
Conditions: in vivo

Row | SMILES | AUC at 24 h
12 | Cc1ccc(Oc2ccc3nc(COc4cccc(C(=O)O)c4)n(C)c3c2)cc1 | 7100 ng·h/mL

System: not listed separately
Test: Tmax in Zucker diabetic fatty rat at 3 mg/kg, po dosed once daily for 14 days and followed by additional administeration on day 15
Assay type: ADME, organism-based
Conditions: in vivo

Row | SMILES | Tmax
13 | Cc1ccc(Oc2ccc3nc(COc4cccc(C(=O)O)c4)n(C)c3c2)cc1 | 2 h

Target: T2, Peroxisome proliferator-activated receptor gamma (Homo sapiens) (UniProt P37231)
T2 sequence (whole entry): T1 sequence (P37231 whole entry)
Test: Agonist activity at recombinant human GAL4-DBD fused PPARgamma LBD expressed in COS7 cells at 10 uM after 24 hrs by luciferase reporter gene assay relative to rosiglitazone
Assay type: cell-based
Conditions: not given

Row | SMILES | Emax
14 | Cc1ccc(Oc2ccc3nc(COc4cccc(C(=O)O)c4)n(C)c3c2)cc1 | 73%

System: Mus musculus
Test: Toxicity in hyperglycemic KK/Ta mouse assessed as body weight gain at 30 mg/kg/day, po administered through diet for 3 days relative to control
Assay type: organism-based
Conditions: in vivo, 72 h

Row | SMILES | Activity
15 | Cc1ccc(Oc2ccc3nc(COc4cccc(C(=O)O)c4)n(C)c3c2)cc1 | 4.8%

Target: T3, Peroxisome proliferator-activated receptor delta (Homo sapiens) (UniProt Q03181)
T3 sequence (whole entry): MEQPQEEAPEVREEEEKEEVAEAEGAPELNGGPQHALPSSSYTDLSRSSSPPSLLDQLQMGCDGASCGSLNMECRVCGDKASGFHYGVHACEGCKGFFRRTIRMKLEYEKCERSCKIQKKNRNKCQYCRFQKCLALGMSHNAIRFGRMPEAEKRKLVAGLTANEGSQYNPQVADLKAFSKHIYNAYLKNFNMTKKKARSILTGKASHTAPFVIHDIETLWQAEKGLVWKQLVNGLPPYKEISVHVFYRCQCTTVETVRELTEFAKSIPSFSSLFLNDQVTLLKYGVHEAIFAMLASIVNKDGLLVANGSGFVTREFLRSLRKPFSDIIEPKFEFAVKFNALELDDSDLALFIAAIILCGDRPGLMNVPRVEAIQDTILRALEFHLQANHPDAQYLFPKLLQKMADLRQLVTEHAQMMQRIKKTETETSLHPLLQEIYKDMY
Test: Agonist activity at PPARdelta (unknown origin) at 10 uM
Conditions: not given

Row | SMILES | Activity
16 | Cc1ccc(Oc2ccc3nc(COc4cccc(C(=O)O)c4)n(C)c3c2)cc1 | inactive

System: not listed separately
Test: Cmax in Zucker diabetic fatty rat at 3 mg/kg, po dosed once daily for 14 days and followed by additional administeration on day 15
Assay type: ADME, organism-based
Set-up: dose 3 mg/kg, route oral
Conditions: in vivo

Row | SMILES | Cmax
17 | Cc1ccc(Oc2ccc3nc(COc4cccc(C(=O)O)c4)n(C)c3c2)cc1 | 1110 ng/mL

System: not listed separately
Test: Metabolic stability in rat liver microsomes after 0.5 hrs
Assay type: ADME, microsome
Conditions: read-out: Stability

Row | SMILES | remaining at 0.5 h
18 | Cc1ccc(Oc2ccc3nc(COc4cccc(C(=O)O)c4)n(C)c3c2)cc1 | 100%

System: not listed separately
Test: Tmax in cynomolgus monkey at 3 mg/kg, po by LC-MS/MS analysis
Assay type: ADME, organism-based, Macaca fascicularis
Conditions: in vivo

Row | SMILES | Tmax
19 | Cc1ccc(Oc2ccc3nc(COc4cccc(C(=O)O)c4)n(C)c3c2)cc1 | 1 h

System: not listed separately
Test: Aqueous thermodynamic solubility of the compound in pH 6.8 solution up to 4 hrs by HPLC-UV analysis
Assay type: physicochemical
Conditions: read-out: Therm_solubility

Row | SMILES | solubility thermodynamic at 4 h
20 | Cc1ccc(Oc2ccc3nc(COc4cccc(C(=O)O)c4)n(C)c3c2)cc1 | 7.9 µg/mL (≈ 20.3 µM)

System: not listed separately
Test: Volume of distribution at steady state in cynomolgus monkey at 1 mg/kg, iv by LC-MS/MS analysis
Assay type: ADME, organism-based, Macaca fascicularis
Conditions: in vivo, read-out: Vdss

Row | SMILES | Vd
21 | Cc1ccc(Oc2ccc3nc(COc4cccc(C(=O)O)c4)n(C)c3c2)cc1 | 0.56 L/kg

System: Rattus norvegicus
Test: Glucose-lowering effect in Zucker diabetic fatty rat assessed as reduction in plasma glucose level at 3 mg/kg, po administered once daily for 14 days measured on day 14 post last dose relative to control
Assay type: functional
Set-up: scale not given: the % may be the effect or the level left
Conditions: not given

Row | SMILES | Activity
22 | Cc1ccc(Oc2ccc3nc(COc4cccc(C(=O)O)c4)n(C)c3c2)cc1 | 58.6%

System: not listed separately
Test: AUClast in cynomolgus monkey at 3 mg/kg, po by LC-MS/MS analysis
Assay type: ADME, organism-based, Macaca fascicularis
Set-up: dose 3 mg/kg, route oral, time 0 - last
Conditions: in vivo

Row | SMILES | AUC(0-t)
23 | Cc1ccc(Oc2ccc3nc(COc4cccc(C(=O)O)c4)n(C)c3c2)cc1 | 4870 ng·h/mL

Target: T4, Peroxisome proliferator-activated receptor alpha (Homo sapiens) (UniProt Q07869)
T4 sequence (whole entry): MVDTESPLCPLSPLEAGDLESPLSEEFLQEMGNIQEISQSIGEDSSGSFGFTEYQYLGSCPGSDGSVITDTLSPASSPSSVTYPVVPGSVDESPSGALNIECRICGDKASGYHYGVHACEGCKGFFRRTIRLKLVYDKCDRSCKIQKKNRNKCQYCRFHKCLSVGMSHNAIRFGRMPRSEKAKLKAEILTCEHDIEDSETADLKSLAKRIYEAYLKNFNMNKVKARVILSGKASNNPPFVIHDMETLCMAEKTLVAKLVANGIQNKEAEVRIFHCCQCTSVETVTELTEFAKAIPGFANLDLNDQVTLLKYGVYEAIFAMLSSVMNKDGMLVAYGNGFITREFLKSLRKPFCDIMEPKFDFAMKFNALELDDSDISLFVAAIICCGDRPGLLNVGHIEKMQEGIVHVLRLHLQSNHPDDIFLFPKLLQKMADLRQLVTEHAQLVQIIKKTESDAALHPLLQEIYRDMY
Test: Agonist activity at recombinant human GAL4-DBD fused PPARalpha LBD expressed in COS7 cells at 10 uM after 24 hrs by luciferase reporter gene assay relative to 2-(4-tert-Butylphenoxy)-3-[4-[2-[(4-pyridin-2-ylbenzoyl)amino]ethoxy]
Assay type: cell-based
Conditions: not given

Row | SMILES | Emax
24 | Cc1ccc(Oc2ccc3nc(COc4cccc(C(=O)O)c4)n(C)c3c2)cc1 | 28%

Target: T5, Peroxisome proliferator-activated receptor alpha (Homo sapiens, UniProt Q07869)
T5 sequence (Q07869 whole entry): T4 sequence (whole entry)
Test: Agonist activity at recombinant human GAL4-DBD fused PPARalpha LBD expressed in COS7 cells after 24 hrs by luciferase reporter gene assay
Assay type: cell-based
Conditions: not given

Row | SMILES | EC50
25 | Cc1ccc(Oc2ccc3nc(COc4cccc(C(=O)O)c4)n(C)c3c2)cc1 | > 10000 nM
